Measurements taken from patent publication US9689040B2, “Selective inhibitors of tumor-initiating cells” (Children's Medical Center Corporation, priority 2011, dated 2017).

Legend:
[1] = test system: BPLER cells; assay: Genome-wide siRNA lethality screen (primary screen), CellTiterGlo viability; type: cell-based, human; conditions: for Ratio: R, BPLER versus HMLER, primary screen; for MAD BPLER / Fold BPLER: siRNA pool against the gene; for MAD BPLER: MAD score of viability in BPLER cells; for Fold BPLER: fold viability in BPLER cells
[2] = test system: HMLER cells; assay: as above; type: cell-based, human; conditions: for Fold_HMLER / MAD_HMLER: primary screen, HMLER cells; for MAD_HMLER: MAD score; for MAD HMLER: MAD score of viability in HMLER cells; for Fold HMLER: fold viability in HMLER cells
[3] = test system: BPLER cells; assay: Secondary (cherry-pick) screen with the 4 individual siRNAs of each pool; conditions: for Cherry_Score: secondary cherry-pick screen, 4 individual siRNAs of each pool
[4] = validation screen with individual siRNAs of each pool
[5] = ratio of Fold_BPLER to Fold_HMLER
[6] = ratio of fold viability BPLER/HMLER
[7] = siRNA pool against the gene, fold viability
[8] = secondary screen with the 4 individual siRNAs of each pool

Substance | Ratio [1] | Fold_HMLER ([2]; siRNA pool) | Cherry Score [3, 4] | Ratio BPLER/HMLER [1, 5] | Ratio BPLER/HMLER [1, 6] | MAD BPLER [1] | Fold BPLER [1] | MAD_HMLER ([2]; siRNA pool against the gene) | Fold_HMLER [2, 7] | MAD HMLER ([2]; siRNA pool against the gene) | Fold HMLER ([2]; siRNA pool against the gene) | Cherry_Score [3] | Cherry Score [3, 8]
NM_032425 | 0.73 | 0.77 | 2 |  |  |  |  |  |  |  |  |  | 
NM_032916 | 0.70 | 0.70 | 2 |  |  |  |  |  |  |  |  |  | 
NM_052946 | 0.67 | 0.90 | 1 |  |  |  |  |  |  |  |  |  | 
NM_080730 | 0.72 | 0.99 | 1 |  |  |  |  |  |  |  |  |  | 
NM_134444 | 0.69 | 1.01 | 1 |  |  |  |  |  |  |  |  |  | 
NM_148571 | 0.73 | 0.81 | 1 |  |  |  |  |  |  |  |  |  | 
NM_152374 | 0.72 | 0.97 | 2 |  |  |  |  |  |  |  |  |  | 
NM_152496 | 0.72 | 0.64 | 1 |  |  |  |  |  |  |  |  |  | 
NM_152655 | 0.72 | 0.89 | 2 |  |  |  |  |  |  |  |  |  | 
NM_152905 | 0.67 | 1.08 | 1 |  |  |  |  |  |  |  |  |  | 
NM_198080 | 0.67 | 0.85 | 1 |  |  |  |  |  |  |  |  |  | 
NOSTRIN |  |  |  | 0.67 | 0.67 | −2.06 | 0.604 | −0.69 | 0.90 | −0.69 | 0.90 | 1 | 1
NUP205 |  |  |  | 0.73 | 0.73 | −2.88 | 0.544 | −1.57 | 0.75 | −1.57 | 0.75 | 3 | 3
PCBP3 |  |  |  | 0.71 | 0.71 | −1.69 | 0.727 | 0.15 | 1.02 | 0.15 | 1.02 | 1 | 1
PDCD4 |  |  |  | 0.73 | 0.73 | −2.81 | 0.462 | −2.25 | 0.63 | −2.25 | 0.63 | 1 | 1
PDE6C |  |  |  | 0.66 | 0.66 | −1.98 | 0.621 | −0.33 | 0.95 | −0.33 | 0.95 | 1 | 1
PHF1 |  |  |  | 0.71 | 0.71 | −3.21 | 0.606 | −0.72 | 0.86 | −0.72 | 0.86 | 1 | 1
POLA1 |  |  |  | 0.74 | 0.74 | −2.01 | 0.724 | −0.17 | 0.97 | −0.17 | 0.97 | 3 | 3
PRC1 |  |  |  | 0.68 | 0.68 | −3.08 | 0.409 | −2.40 | 0.60 | −2.40 | 0.60 | 1 | 1
SCD |  |  |  | 0.74 | 0.74 | −3.24 | 0.555 | −1.58 | 0.75 | −1.58 | 0.75 | 2 | 2
SETX |  |  |  | 0.70 | 0.70 | −2.40 | 0.617 | −0.72 | 0.89 | −0.72 | 0.89 | 1 | 1
SLC24A3 |  |  |  | 0.72 | 0.72 | −2.23 | 0.637 | −0.75 | 0.88 | −0.75 | 0.88 | 1 | 1
SLC47A1 |  |  |  | 0.68 | 0.68 | −1.62 | 0.613 | −0.71 | 0.90 | −0.71 | 0.90 | 2 | 2
STIM2 |  |  |  | 0.72 | 0.72 | −2.39 | 0.597 | −0.99 | 0.83 | −0.99 | 0.83 | 2 | 2
TANC2 |  |  |  | 0.67 | 0.67 | −1.86 | 0.709 | 0.40 | 1.05 | 0.40 | 1.05 | 1 | 1
TBC1D24 |  |  |  | 0.71 | 0.71 | −1.97 | 0.680 | −0.32 | 0.95 | −0.32 | 0.95 | 2 | 2
TNPO1 |  |  |  | 0.70 | 0.70 | −1.99 | 0.630 | −0.59 | 0.90 | −0.59 | 0.90 | 1 | 1
TSG101 |  |  |  | 0.66 | 0.66 | −2.45 | 0.684 | 0.23 | 1.04 | 0.23 | 1.04 | 3 | 3
TUT1 |  |  |  | 0.69 | 0.69 | −1.91 | 0.680 | −0.07 | 0.99 | −0.07 | 0.99 | 2 | 2
